This passage reports IC50 results from patent US20040254100A1, “Use of thiostrepton as an anti-mycobacterial agent” (priority 2000, published 2004).

The assay has as its system M. tuberculosis H37Ra in murine alveolar macrophage-like cell line MH-S. In words: microbe, parasite or virus in culture. Format: cell-based. Conditions: Mycobacterium tuberculosis, 24 h.

Take `C=C(NC(=O)C(=C)NC(=O)c1csc(C2=N[C@@H]3c4csc(n4)[C@H]4NC(=O)c5csc(n5)[C@H]([C@](C)(O)[C@@H](C)O)NC(=O)[C@H]5CSC(=N5)/C(=C/C)NC(=O)[C@H]([C@@H](C)O)NC(=O)c5csc(n5)[C@]3(CC2)NC(=O)[C@H](C)NC(=O)C(=C)NC(=O)[C@H](C)NC(=O)[C@H]([C@@H](C)CC)N[C@@H]2C=Cc3c([C@H](C)O)cc(nc3[C@H]2O)C(=O)O[C@@H]4C)n1)C(N)=O` [thiostrepton, Thiostrepton]: inhibition was half-maximal at 30 nM (IC50).
